From patent US6451356B1, “Antibacterial composition comprising oenostacin from oenothera biennis” (Council of Scientific and Industrial Research, priority 2000, dated 2002) come the findings set out here.

Values after ≈ are worked out from the molar mass of the structure shown. Read-outs that look alike come from different tables or passages of the source.

Common to all, as to assay type: cell-based
The subject of assay [1] is Streptococcus mutans. The experiment in a line: MIC by two-fold broth dilution, S. mutans. As to the method:
(§1) In order to identify the antibacterial chemical entities present in the EtOAc fraction 3 and 4 of O.biennis roots, the fractions are further run on silica gel column chromatography again eluting with varying proportions of chloroform and MeOH. Aliquots of eluate are run on TLC to check for the desired purity of the compound. The pure compounds thus obtained are analyzed for their antibacterial properties by two-fold broth dilution method to determine the minimal inhibitory concentration (MIC). […] The compounds CIM791 and 790 are identified as 3,5-dihydroxy-4-pent-4′-enoyl-1′-oxymethylbenzoic acid (Oenostacin) and gallic acid, respectively, using NMR spectral data.

The test system of assay [2] is Pseudomonas aeruginosa. The experiment in a line: MIC by two-fold broth dilution, P. aeruginosa. Conditions: Table 5, read-out: Minimal inhibitory concentration (MIC) P. aeruginosa. The protocol:
as §1
In general terms: In broth dilution the organism is exposed to a series of concentrations in liquid medium.

Assay [3] concerns Staphylococcus epidermidis. The experiment in a line: MIC by two-fold broth dilution, S. epidermidis. More on the design: Minimal inhibitory concentration (MIC) S. epidermidis: unit not given here. As to the method:
CIM 791 is tested for its minimal inhibitory concentration, which is a measure of the growth inhibitory potential of the compound and determined against S. epidermidis by two-fold broth dilution technique.
as §1

Turning to `O=C(O)c1cc(O)c(O)c(O)c1` [Gallic acid, gallic acid], the MIC in assay [1] (read-out: MIC against Streptococcus mutans) turned out to be 625 µg/mL (≈ 3.67 mM); in assay [2], 1250 µg/mL (≈ 7.35 mM).
Regarding `COC(=O)CC/C=C/c1c(O)cc(C(=O)O)cc1O` [Oenostacin, 3,5-dihydroxy-4-pent-4′-enoyl-1′-oxymethylbenzoic acid], the MIC in assay [1] (Table 5, read-out: Minimal inhibitory concentration (MIC) S. mutans) turned out to be 1250 µg/mL (≈ 4.69 mM); in assay [3] (Staphylococcus epidermidis, read-out: MIC against Staphylococcus epidermidis), 31.5 µg/mL (≈ 0.118 mM). Besides, in assay [3], the “activity against Staphylococcus epidermidis (in words)” value is listed as “strong activity”. For the same compound, in assay [3] (Table 5), the “Minimal inhibitory concentration (MIC) S. epidermidis” value came to 31.5.
